Patent US4820695A, “C-20-dihydro-deoxy-(cyclic amino)-derivatives of macrolide antibiotics” (priority 1987, dated 1989)
In brackets after ≈: the same amount, converted by molar mass. Like-named read-outs stand apart in the source and are kept apart here.

Key:
[1] = tested on: Streptococcus pyogenes C203; assay: ED50 in mice experimentally infected with S. pyogenes C203 (Table XI); format: in vivo; settings: Streptococcus pyogenes, doses given 1 and 4 hours postinfection, read-out: ED50
Method: The C-20 modified derivatives of this invention have shown in vivo antimicrobial activity against experimentally-induced infections in laboratory animals. When two doses of test compound were administered to mice experimentally infected with S. pyogenes C203, the activity observed was measured as an ED50 value [effective dose in mg/kg to protect 50% of the test animals: see Warren Wick, et al., J. Bacteriol. 81, 233-235 (1961)].
^a mg/kg × 2; doses given 1 and 4 hours postinfection

[2] = tested on: Pasteurella multocida 60A; assay: MIC, broth-dilution microtiter test (Table X); format: cell-based; settings: Avian isolate
Excerpt: (§1) The MIC's in Table X were obtained using conventional broth-dilution microtiter tests.

[3] = tested on: Mycoplasma hyorhinis 29E; assay: MIC, broth-dilution microtiter test (Table X); format: cell-based
Excerpt: as §1

[4] = tested on: Pasteurella hemolytica 22C; assay: MIC, broth-dilution microtiter test (Table X); format: cell-based
Excerpt: as §1

[5] = tested on: Mycoplasma gallisepticum 29C; assay: MIC, broth-dilution microtiter test (Table X); format: cell-based
Excerpt: as §1

[6] = tested on: Staphylococcus aureus; assay: MIC, broth-dilution microtiter test (Table X); format: cell-based
Excerpt: as §1

[7] = tested on: Mycoplasma hyopneumoniae S5972; assay: MIC, broth-dilution microtiter test (Table X); format: cell-based
Excerpt: as §1

[8] = tested on: Mycoplasma synoviae 40A; assay: MIC, broth-dilution microtiter test (Table X); format: cell-based
Excerpt: as §1

[9] = tested on: Pasteurella multocida 17E; assay: MIC, broth-dilution microtiter test (Table X); format: cell-based; settings: Bovine isolate
Excerpt: as §1

[10] = tested on: Streptococcus sp. 19F; assay: MIC, broth-dilution microtiter test (Table X); format: cell-based
Excerpt: as §1

[11] = tested on: Streptococcus pneumoniae Park I; assay: MIC, standard agar-dilution assay (Table IX); format: cell-based; settings: Streptococcus pneumoniae Park I, agar-dilution
[12] = tested on: Klebsiella X26; assay: MIC, standard agar-dilution assay (Table IX); format: cell-based
[13] = tested on: Staphylococcus aureus S13E; assay: MIC, standard agar-dilution assay (Table IX); format: cell-based
[14] = tested on: Staphylococcus aureus V41; assay: MIC, standard agar-dilution assay (Table IX); format: cell-based; settings: Staphylococcus aureus V41, Penicillin-resistant strain
[15] = tested on: Streptococcus pyogenes C203; assay: MIC, standard agar-dilution assay (Table IX); format: cell-based
[16] = tested on: Haemophilus influenzae C.L.; assay: MIC, standard agar-dilution assay (Table IX); format: cell-based; settings: Ampicillin-sensitive strain
[17] = tested on: Escherichia coli EC14; assay: MIC, standard agar-dilution assay (Table IX); format: cell-based
[18] = tested on: Escherichia coli N10; assay: MIC, standard agar-dilution assay (Table IX); format: cell-based
[19] = tested on: Staphylococcus epidermidis 222; assay: MIC, standard agar-dilution assay (Table IX); format: cell-based
[20] = tested on: Staphylococcus epidermidis EPI1; assay: MIC, standard agar-dilution assay (Table IX); format: cell-based; settings: Staphylococcus epidermidis EPI1, agar-dilution
[21] = tested on: Streptococcus Group D 2041; assay: MIC, standard agar-dilution assay (Table IX); format: cell-based
[22] = tested on: Escherichia coli TEM; assay: MIC, standard agar-dilution assay (Table IX); format: cell-based
[23] = tested on: Streptococcus Group D X66; assay: MIC, standard agar-dilution assay (Table IX); format: cell-based
[24] = tested on: Pasteurella multocida; assay: Pasteurella infection in one-day-old chicks, subcutaneous administration (Table XII); format: in vivo; settings: Administered subcutaneously, 30 mg/kg × 2, 1 and 4 hours post-challenge
Method: Many of the C-20 modified derivatives of this invention have also shown in vivo antibacterial activity against infections induced by gram-negative bacteria. Tables XII and XIII summarize the results of tests in which illustrative compounds were evaluated against a Pasteurella infection in one-day-old chicks. The compounds were administered parenterally or orally after challenge of the chicks with Pasteurella multocida (0.1 ml of a 10^-4 dilution of a twenty-hour tryptose broth culture of an avian P. multocida given subcutaneously). In these tests, unless indicated otherwise, all non-medicated infected chicks died within 24 hours of Pasteurella challenge. In the tests summarized in Table XII, the compounds were administered by subcutaneous injection at a dosage of 30 mg/kg, 1 and 4 hours post-challenge of the chicks with P. multocida. In the tests summarized in Table XIII the compounds were administered in medicated drinking water (at a level of 2 g/gal) available from 4 to 20 hours prior to challenge of the chicks with P. multocida and during the 3 -day test period.
^a Administered subcutaneously; 30 mg/kg × 2

[25] = tested on: Staphylococcus aureus X400; assay: MIC, standard agar-dilution assay (Table IX); format: cell-based; settings: Staphylococcus aureus X400, Methicillin-resistant strain
[26] = tested on: Staphyloccus aureus X1.1; assay: MIC, standard agar-dilution assay (Table IX); format: cell-based, Staphylococcus aureus
[27] = tested on: Haemophilus influenzae 76; assay: MIC, standard agar-dilution assay (Table IX); format: cell-based; settings: Haemophilus influenzae 76, Ampicillin-resistant strain
[28] = Titratable groups in 66% aqueous DMF (Tables XIV-XVI); format: physicochemical
Excerpt: ^c Run in 66% aqueous DMF
^d Run in 66% aqueous DMF

Compound `CCC1OC(=O)CC(O)C(C)C(OC2OC(C)C(O)C(N(C)C)C2O)C(CCN2CC=C(c3ccccc3)CC2)CC(C)C(=O)C=CC(C)=CC1COC1OC(C)C(O)C(OC)C1OC` (centres unmarked) [Compound D26, 20-DH-DO-20-(4-phenyl-1,2,3,6-tetrahydropyridin-1-yl)desmycosin] has an ED50 ([1]; C203, Oral) of 12.5 mg/kg, an ED50 ([1]; C203, sc, Subcutaneous) of 5.61 mg/kg and an MIC ([2]; read-out: MIC) of 12.5 µg/mL (≈ 13.7 µM). The MIC ([3]; read-out: MIC) was 25 µg/mL (≈ 27.3 µM), the MIC ([4]; read-out: MIC) was 12.5 µg/mL (≈ 13.7 µM) and the MIC ([5]; Mycoplasmoides gallisepticum, read-out: MIC) was ≤ 0.048 µg/mL. It also gave an MIC ([6]; read-out: MIC) of 3.12 µg/mL (≈ 3.41 µM), an MIC ([7]; Mesomycoplasma hyopneumoniae, read-out: MIC) of 0.78 µg/mL (≈ 0.852 µM) and an MIC ([8]; Mycoplasmopsis synoviae, read-out: MIC) of 0.78 µg/mL (≈ 0.852 µM). It also gave an MIC ([9]; read-out: MIC) of 6.25 µg/mL (≈ 6.83 µM), an MIC ([10]; read-out: MIC) of 0.78 µg/mL (≈ 0.852 µM) and an MIC ([11]; read-out: MIC) of 0.25 µg/mL (≈ 0.273 µM). It also gave an MIC ([12]; read-out: MIC) of 64 µg/mL (≈ 69.9 µM), an MIC ([13]; Staphylococcus aureus, S13E) of 0.5 µg/mL (≈ 0.546 µM) and an MIC ([14]; read-out: MIC) of 0.5 µg/mL (≈ 0.546 µM). The MIC ([15]; read-out: MIC) was 0.25 µg/mL (≈ 0.273 µM), the MIC ([16]; read-out: MIC) was 32 µg/mL (≈ 35 µM) and the MIC ([17]; read-out: MIC) was 128 µg/mL (≈ 140 µM). The MIC ([18]; read-out: MIC) was 128 µg/mL (≈ 140 µM), the MIC ([19]; read-out: MIC) was 0.25 µg/mL (≈ 0.273 µM) and the MIC ([20]; read-out: MIC) was 0.5 µg/mL (≈ 0.546 µM). It also gave an MIC ([21]; GROUPD2041, read-out: MIC) of 2 µg/mL (≈ 2.19 µM), an MIC ([22]; read-out: MIC) of 32 µg/mL (≈ 35 µM) and an MIC ([23]; read-out: MIC) of 1 µg/mL (≈ 1.09 µM). The “Number of Deaths/Number Treated” value [24] was 10/10, the MIC ([25]; read-out: MIC) was 0.5 µg/mL (≈ 0.546 µM) and the MIC ([26]; Staphylococcus aureus, read-out: MIC) was 0.5 µg/mL (≈ 0.546 µM). It also gave an MIC ([27]; read-out: MIC) of 8 µg/mL (≈ 8.74 µM).
Compound `CCC1OC(=O)CC(O)C(C)C(OC2OC(C)C(O)C(N(C)C)C2O)C(CCN2CCC(C)CC(C)(C)C2)CC(C)C(=O)C=CC(C)=CC1COC1OC(C)C(O)C(OC)C1OC` (single isomer, unassigned) [Compound D24, 20-DH-DO-20-(3,3,5-Trimethylhexahydroazepin-1-yl)desmycosin] has an MIC [2] of 6.25 µg/mL (≈ 6.97 µM), an MIC [3] of 25 µg/mL (≈ 27.9 µM) and an MIC [4] of 6.25 µg/mL (≈ 6.97 µM). For the same compound, the MIC [5] was 0.39 µg/mL (≈ 0.435 µM), the MIC [6] was 3.12 µg/mL (≈ 3.48 µM) and the MIC [7] was 0.78 µg/mL (≈ 0.869 µM). It also gave an MIC [8] of 0.097 µg/mL (≈ 0.108 µM), an MIC [9] of 12.5 µg/mL (≈ 13.9 µM) and an MIC [10] of 3.12 µg/mL (≈ 3.48 µM). The MIC [11] was 1 µg/mL (≈ 1.11 µM), the MIC [12] was 128 µg/mL (≈ 143 µM) and the MIC ([13]; Staphylococcus aureus S13E, agar-dilution) was 0.5 µg/mL (≈ 0.557 µM). For the same compound, the MIC [14] was 0.5 µg/mL (≈ 0.557 µM), the MIC [15] was 0.25 µg/mL (≈ 0.279 µM) and the MIC [16] was 32 µg/mL (≈ 35.7 µM). For the same compound, the MIC [17] was 64 µg/mL (≈ 71.3 µM), the MIC [18] was 64 µg/mL (≈ 71.3 µM) and the MIC [19] was 0.25 µg/mL (≈ 0.279 µM). The “Titratable groups” value [28] was 9.4, the “Titratable groups (first value)” value [28] was 7.9 and the MIC [20] was 0.5 µg/mL (≈ 0.557 µM). The MIC [21] was 8 µg/mL (≈ 8.92 µM), the MIC [22] was 32 µg/mL (≈ 35.7 µM) and the MIC [23] was 4 µg/mL (≈ 4.46 µM). The “Number of Deaths/Number Treated” value [24] was 2/10, the MIC [25] was 1 µg/mL (≈ 1.11 µM) and the MIC [26] was 0.5 µg/mL (≈ 0.557 µM). It also gave an MIC [27] of 8 µg/mL (≈ 8.92 µM).
